US9126891B2, “Cycloalkyl-diamines” (MediSynergics, LLC, priority 2014, dated 2015)

Assays:
[1] = test system: T. brucei brucei clone 427-221a (bloodstream forms); test: T. brucei brucei growth inhibition assay (CellTiter-Glo ATP bioluminescence); format: cell-based; details: 40 hours incubation, 95% Confidence Intervals in parentheses, read-out: T. b. brucei IC50
Method: The growth inhibition assay for T. brucei brucei was conducted as described previously by Z. B. Mackey (Kenny K. H. Ang, Joseline Ratnam, Jiri Gut, Jennifer Legac, Elizabeth Hansell, Zachary B. Mackey, Katarzyna M. Skrzypczynska, Anjan Debnath, Juan C. Engel, Philip J. Rosenthal, James H. McKerrow, Michelle R. Arkin, Adam R. Renslo (2010) “Mining a Cathepsin Inhibitor Library for New Antiparasitic Drug Leads”, PLoS Neglected Tropical Diseases, 5(5):e1023). Bloodstream forms of the monomorphic T. brucei brucei clone 427-221a were grown in complete HMI-9 medium containing 10% FBS, 10% Serum Plus medium (Sigma Inc., St. Louis, Mo., USA), 50 U/mL penicillin and […] streptomycin (Invitrogen) at 370 C under a humidified atmosphere and 5% CO2. […] of each dilution was added to […] of diluted parasites ([…]) in sterile Greiner 96-well flat white opaque culture plates such that the final DMSO concentration was 0.5%. The 0% inhibition control wells contained 0.5% DMSO while 100% inhibition control wells contained 50 mM thimerosal (Sigma-Aldrich, St. Louis, Mo.). After compound addition, plates were incubated for 40 hours at 370 C. At the end of the incubation period, […] of CellTiter-Glo™ reagent (Promega Inc., Madison, Wis., USA) was added to each well and plates were placed on an orbital shaker at room temperature for 2 min to induce lysis. After an additional 10 min of incubation without shaking, to stabilize the signal, the ATP-bioluminescence of each well was determined using an Analyst HT Plate Reader (Molecular Devices, Sunnyvale, Calif., USA). Raw values were converted to log 10 and percentage inhibition calculated relative to the controls. IC50 curve fittings were performed with Prism 4 software as above. Pentamidine was used as a comparator in the assay.

P. falciparum strain 3D7 = test: Plasmodium falciparum activity assay (SYBR Green I method); format: cell-based; details: strain 3D7 in human erythrocytes, 72 h incubation
Method: P. falciparum strain 3D7 was cultured according to the method of Trager and Jensen (W. Trager, J. B. Jensen (1976) “Human malaria parasites in continuous culture”, Science, 193(4254):673-5) with minor modifications. Parasites were grown in human erythrocytes (2% hematocrit) in an atmosphere of 5% CO2, 5% O2, 90% N2 in RPMI 1640 medium (Gibco) supplemented with 25 mM hepes buffer (Sigma), 25 mg/L gentamicin (Gibco, Life Technologies, Grand Island, N.Y.), 1 mM sodium pyruvate (Sigma), 50 mg/L hypoxanthine (Sigma), 2 g/L glucose (Sigma), 2.52 g/L sodium bicarbonate (Sigma) and 5 g/L Albumax 1 (Gibco). In vitro antimalarial activity was determined by the SYBR Green I method described by Smilkstein (Smilkstein M, Sriwilaijaroen N, Kelly J X, Wilairat P, Riscoe M. (2004) “Simple and inexpensive fluorescence-based technique for high-throughput antimalarial drug screening”. Antimicrob. Agents Chemother., 48(5):1803-6. PMCID: 400546) with modifications (see Winter R W, Kelly J X, Smilkstein M J, Dodean R, Bagby G C, Rathbun R K (2006) “Evaluation and lead optimization of anti-malarial acridones”. Exp. Parasitol., 114(1):47-56). […] After incubation for 1 h at room temperature in the dark, plates were read on a Safire2 (Tecan) plate reader with excitation and emission wavelengths of […], respectively. […]

Structure (SMILES)	IC50 [1]	IC50 (P. falciparum strain 3D7)
CN[C@@]1(c2ccccc2Cl)CCCC[C@H]1NCCCN1CCOCC1 (relative stereo) [Example 16b, Cis-1-(2-chlorophenyl)-N^2-(3-(morpholin-1-yl)propyl)-N^1-methylcyclohexane-1,2-diamine]	1.7 µM	18 µM
CN[C@@]1(c2ccccc2Cl)CCCC[C@H]1NCCCc1ccccc1 (relative stereo) [Example 15b, Cis-1-(2-chlorophenyl)-N^2-(3-phenylpropyl)-N^1-methylcyclohexane-1,2-diamine]	4.6 µM	2.5 µM
CN[C@]1(c2ccccc2Cl)CCCC[C@H]1NCCCn1ccnc1 (relative stereo) [Example 12a, Trans-1-(2-chlorophenyl)-N^2-(3-(1-imidazolyl)-propyl)-N^1-methylcyclohexane-1,2-diamine]	16 µM	–
